What all share (assay): In Vitro Antibacterial Activity, agar dilution MIC
What all share (assay type): cell-based

The test system of one assay is Escherichia coli SS. The settings on record: E. coli SS; BHI agar dilution, 20-24 hours; unit assumed. The method in brief: (§1)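 Agar dilution, BHI agar, 2-fold compound series; ~10^4 CFU/spot via Steers replicator; 35°-37° C, 20-24 h. MIC = lowest concentration with no growth (slight haze or sparse isolated colonies allowed) vs drug-free growth control.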
A general note: In agar dilution, organisms are placed on agar that contains the substance at set levels.

Assay [1] deals with Micrococcus luteus ATCC 9341. The conditions noted are these: M. luteus ATCC 9341; BHI agar dilution, 20-24 hours; unit assumed. The method in brief:
as §1

Assay [2] has as its system Pseudomonas aeruginosa BMH10. The settings on record: P. aeruginosa BMH10; BHI agar dilution, 20-24 hours; unit assumed. The method in brief: as §1
Assay [3] deals with Pseudomonas aeruginosa K799/WT. The settings on record: P. aeruginosa K799/WT; BHI agar dilution, 20-24 hours; unit assumed. In short, it runs like this: as §1
In assay [4] the test system is Staphylococcus aureus 642A. The conditions noted are these: S. aureus 642A; BHI agar dilution, 20-24 hours; unit assumed. In short, it runs like this:
as §1

Another assay deals with Escherichia coli H560. The settings on record: E. coli H560; BHI agar dilution, 20-24 hours; unit assumed. In short, it runs like this:
as §1

Assay [5] deals with Staphylococcus epidermidis 3519. The settings on record: S. epidermidis 3519; BHI agar dilution, 20-24 hours; unit assumed. In short, it runs like this:
as §1

Assay [6] relates to Streptococcus agalactaciae CMX 508. The conditions noted are these: S. agalactaciae CMX 508; BHI agar dilution, 20-24 hours; unit assumed. In short, it runs like this: as §1
The next assay concerns Pseudomonas cepacia 2961. The conditions noted are these: P. cepacia 2961; BHI agar dilution, 20-24 hours; unit assumed. In short, it runs like this: as §1

≈ marks a conversion by molar mass, not a printed value.

As to `CN(C)CC1COC2(CCN(c3nc4c(cc3F)c(=O)c(C(=O)O)cn4-c3ccc(F)cc3F)C2)O1` (stereo not drawn) [Example 445], the MIC values in the assay with Escherichia coli SS stood at 0.2 µg/mL (≈ 0.396 µM); in assay [1] it was 12.5 µg/mL (≈ 24.8 µM); in assay [2], 12.5 µg/mL (≈ 24.8 µM); in assay [3] it was 12.5 µg/mL (≈ 24.8 µM); in assay [4], 0.39 µg/mL (≈ 0.773 µM); in the assay on Escherichia coli H560, 1.56 µg/mL (≈ 3.09 µM). Also, the results for the MIC values (in [5]; in assay [6]; against Pseudomonas cepacia 2961) were 0.39 µg/mL (≈ 0.773 µM), 1.58 µg/mL (≈ 3.13 µM) and 50 µg/mL (≈ 99.1 µM), respectively.

The values above are taken from patent US5137892A, “Quinoline, naphthyridine and pyridobenzoxazine derivatives” (Abbott Laboratories, priority 1990, dated 1992).
